Converted amounts (≈) assume the structure as drawn. “And” between values parts separate entries of the source, which are not always exact repeats. Equal entries are not always repeated. Where two headings read alike, the source gives them in different places.
Tests used:
[1] = tested on: human small cell lung cancer cell line H69/P; experiment: MTT assay, 7 day exposure, sensitivity of parent cell line H69/P to chemotherapeutic agents; assay type: cell-based; details: H69/P; CsA 5 μg/ml, clofazimine 1 μg/ml or B669 0.5 μg/ml
Protocol: (§1) The riminophenazines of the above formula (I), contain an imino group. […] The potency of compounds of the above general formula, as inhibitors of multi-drug resistance, was assessed by sensitization of a P-glycoprotein positive cell line to drugs associated with this form of resistance. A human small cell lung cancer cell line H 69/P as well as a multi-drug resistance (MDR) sub-line H69/LX4 were used. These cell lines were obtained from the Medical Research Council Clinical Oncology and Radiotherapeutics Unit, Hills Road, Cambridge, England. The H69/LX4 line was selected in vitro by progressive exposure to increasing concentrations of doxorubicin in order to increase P-glycoprotein expression.
(§2) The cell lines used were human small cell lung cancer cell line HP69/P and a multi-drug resistant (MDR) sub-line H69/LX4, both of which were supplied by the MRC Clinical Oncology and Radiotherapeutics Unit, Hills Road, Cambridge, England. The maintenance of the cell lines and drug response assays was done as described by Twentyman et al in British Journal of Cancer Volume 65 pages 335-340. The H69/LX4 line was originally described by Twentyman et al in British Journal of Cancer Volume 53, pages 529-637 (1986).
(§3) The data in parenthesis represents fold sensitivity compared with the chemotherapeutic agent without the MDR inhibitor.

[2] = tested on: MDR leukaemia cell line K562/MMB; experiment: cells; details: for INCREASED SENSITIVITY K 562/MMB: Table VIII, values equal IC50 NONE / IC50 with VB 3 ng/ml of Table VII, 10080 min; for MDR activity / sensitivity against cell line K562/MMP: compared with known reference compound B4100
Protocol: A third cell line (562/MMB) used was a MDR leukemia cell line selected in vitro by progressive exposure to increasing concentrations of vinblastine in order to increase P-glycoprotein expression. This cell line was developed in the Department of Immunology, University of Pretoria from K562 (ATCC CCL 243) supplied by Highveld Biological (Pty) Ltd, Sandton.
(§4) The general procedure set forth above was followed, i.e. 7 days incubation in the4 presence of doxorubicin at 12,5 ng/ml or vinblastine at 25 or 3 ng/ml.
(§5) The effects were examined over a seven (7) day exposure to different concentrations of B4119 and B4125 on the sensitivity of a doxorubicin resistant leukaemia cell line (K562/MMB) and a lung carcinoma cell line (H69/LX4) to doxorubicin (dox) and vinblastine (VB) using the MTT assay.

H69/LX4 cells = experiment: [14C]-vinblastine accumulation in MDR cell line; assay type: cell-based, human; details: 1 hour pretreatment, 30 minutes [14C]-vinblastine
Protocol: The effect of riminophenazines on the accumulation of [^14 C]-vinblastine was investigated. For these experiments, both of the above cell lines (H69/LX4 and H69/P) were prepared as described by Coley et al (Biochem. Pharmacal 38, 4467-4475 (1989)). After a 1 hour pretreatment with the MDR reversal agents, cells (1×10^6 /ml) were exposed to […] [^14 C]-vinblastine (1 μCi specific activity) for 30 minutes.

[3] = tested on: multi-drug resistant (MDR) lung carcinoma cell line H69/LX4; experiment: in vitro; details: for IC50: Homo sapiens; for INCREASED SENSITIVITY H69/Lx4: Table VIII, values equal IC50 NONE / IC50 with VB 25 ng/ml of Table VII, 10080 min
Protocol: as §1, §2, §3
(§6) The results obtained, are illustrated graphically in FIGS. 4 to 7 of the accompanying drawings.
as §4, §5

[4] = bio-availability (no method given)
in vitro = details: human, h69/lx4 cells
Protocol: as §1, §2, §3, §6, §4, §5

[5] = H69/LX4, CsA 5 μg/ml, clofazimine 1 μg/ml or B669 0.5 μg/ml
[6] = 168 h, read-out: IC 50 H69/Lx4 NONE
[7] = read-out: IC 50 H69/Lx4 DOX 12 ng/ml
[8] = read-out: IC 50 H69/Lx4 VB 25 ng/ml

## c1ccc(Nc2cc3nc4ccccc4n(-c4ccccc4)c-3cc2=NC2CCCCC2)cc1 [Compound B669]
[1]
  fold sensitivity to Cyclophosphamide compared with agent without MDR inhibitor: 1.0 fold
  fold sensitivity to Daunorubicin compared with agent without MDR inhibitor: 1.2 fold
  fold sensitivity to Doxorubicin compared with agent without MDR inhibitor: 1.0 fold
  fold sensitivity to Etoposide compared with agent without MDR inhibitor: 1.2 fold
  fold sensitivity to Methotrexate compared with agent without MDR inhibitor: 1.0 fold
  fold sensitivity to Mitomycin C compared with agent without MDR inhibitor: 0.7 fold
  fold sensitivity to Vinblastine compared with agent without MDR inhibitor: 1.1 fold
[2]; Homo sapiens, K562, read-out: IC 50 K562/MMB VB 3 ng/ml, Table VII, with vinblastine 3 ng/ml
  IC50: 0.023 µg/mL (≈ 0.0517 µM)
[2]
  INCREASED SENSITIVITY K 562/MMB: 6.04
  MDR activity / sensitivity against cell line K562/MMP: good activity
H69/LX4 cells
  vinblastine accumulation in the MDR cell line: significant enhancement
[3]; [5]
  fold sensitivity to Cyclophosphamide compared with agent without MDR inhibitor: 1.1 fold
  fold sensitivity to Daunorubicin compared with agent without MDR inhibitor: 2.4 fold
  fold sensitivity to Doxorubicin compared with agent without MDR inhibitor: 6.9 fold
  fold sensitivity to Etoposide compared with agent without MDR inhibitor: 14.4 fold
  fold sensitivity to Methotrexate compared with agent without MDR inhibitor: 0.9 fold
  fold sensitivity to Mitomycin C compared with agent without MDR inhibitor: 2.5 fold
  fold sensitivity to Vinblastine compared with agent without MDR inhibitor: 13.7 fold and ~13 fold
[3]; [6]
  IC50: 1 µg/mL (≈ 2.25 µM)
[3]; [7]
  IC50: 0.996 µg/mL (≈ 2.24 µM)
[3]; [8]
  IC50: 0.254 µg/mL (≈ 0.571 µM)
[3]
  INCREASED SENSITIVITY H69/Lx4: 3.94

## CC1(C)CC(N=c2cc3n(-c4cc(Cl)c(Cl)c(Cl)c4)c4ccccc4nc-3cc2Nc2cc(Cl)c(Cl)c(Cl)c2)CC(C)(C)N1 [Compound B4169, N,5-bis(3,4,5-trichiorophenyl)-3,5-dihydro-3-[(2',2',6',6'-tetramethyl-4-piperidyl)-imino]-2-phenazinamine]
[4]
  bio-availability: good bio-availability
[2]
  INCREASED SENSITIVITY K 562/MMB: 24.66
  MDR activity / sensitivity against cell line K562/MMP: increased substantially and unexpectedly
[3]; H69/LX4, with doxorubicin 12,5 ng/ml or vinblastine 25 ng/ml, FIGS. 4 to 7
  MDR reversal properties: Very good MDR reversal properties
[3]; [6]
  IC50: 1.57 µg/mL (≈ 2.21 µM)
[3]; [7]
  IC50: 1.08 µg/mL (≈ 1.53 µM)
[3]; [8]
  IC50: 0.213 µg/mL (≈ 0.301 µM)
[3]
  INCREASED SENSITIVITY H69/Lx4: 7.36
In vitro
  MNTC at 168 h: > 12.5 µg/mL
